These compounds were tested against T1, human cloned 5-HT6 receptors (Homo sapiens, UniProt P50406) (assay: 5-HT6 receptor binding assay, [3H]-LSD displacement on washed membranes of HeLa-5HT6 cells). Conditions: radio-ligand [3H]-LSD 2.0 nM, HeLa-5HT6 cell membranes, 37° C., Ki by Cheng and Prusoff.
T1 construct: host or cells: HeLa cells expressing 5-HT6 (HeLa-5HT6), washed membranes
Description: Method for assay of 5-HT6 antagonistic activity:
The test compounds were dissolved in polyethylene glycol:dimethyl sulphoxide (1:1) at 1 or 10 mM and diluted to 0.1 mM using 5 mM tris buffer (pH 7.7 @25° C.). Dissolution was assisted by addition of 0.02 ml 5M HCl plus heating to 40° C. and sonication for 10 minutes. […] The incubation buffer was 50 mM Trizma (Sigma, UK) pH7.7 @25° C., 4 mM MgCl2.
After incubation at 37° C., the mixtures were filtered using a Packard Filtermate in Packard TopCount format. Filters were washed with 4×1 ml aliquots of ice-cold incubation buffer. Filters were dried and impregnated with 0.04 ml of Microscint 20 (Packard). IC50 values were estimated from the counts per minute using a four parameter logistic curve fit within EXCEL (2). Ki values were calculated using the method of Cheng and Prusoff(3). pIC50 and pKi are the negative log10 of the molar IC50 and Ki respectively.

T1 sequence (P50406 whole entry): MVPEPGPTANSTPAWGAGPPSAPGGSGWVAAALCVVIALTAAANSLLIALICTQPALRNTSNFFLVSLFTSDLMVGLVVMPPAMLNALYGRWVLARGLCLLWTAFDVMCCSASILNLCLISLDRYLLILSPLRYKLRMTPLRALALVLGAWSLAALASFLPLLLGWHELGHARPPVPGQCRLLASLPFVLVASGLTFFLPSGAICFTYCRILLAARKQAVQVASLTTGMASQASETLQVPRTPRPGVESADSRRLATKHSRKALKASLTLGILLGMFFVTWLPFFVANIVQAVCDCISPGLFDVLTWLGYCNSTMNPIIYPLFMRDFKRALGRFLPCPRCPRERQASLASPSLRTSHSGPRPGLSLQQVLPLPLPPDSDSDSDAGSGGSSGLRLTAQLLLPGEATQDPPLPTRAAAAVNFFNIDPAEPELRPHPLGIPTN

**Q.** With `COc1ccc(NS(=O)(=O)c2cccc(Cl)c2)cc1N1CCNCC1` [Example 78, 3-Chloro-N-(4-methoxy-3-piperazin-1-ylphenyl)benzenesulfonamide] as the compound, how does the Ki read?
**A.** The Ki was < 10 nM.

**Q.** Which Ki does the source give for `COc1ccc(NS(=O)(=O)c2cc(Cl)cc(Cl)c2)cc1N1CCNCC1` [Example 72, 3,5-Dichloro-N-(4-methoxy-3-piperazin-1-ylphenyl)benzenesulfonamide] here?
**A.** Its Ki is < 10 nM.

**Q.** With `COc1ccc(NS(=O)(=O)c2ccc3c(Cl)cccc3c2)cc1N1CCNCC1` [Example 79, 5-Chloronaphthalene-2-sulfonic acid(4-methoxy-3-piperazin-1-ylphenyl)amide] as the compound, how does the Ki read?
**A.** The Ki was < 10 nM.

**Q.** For `COc1ccc(NS(=O)(=O)c2c(C)sc3ccc(Cl)cc23)cc1N1CCN(C)CC1` [Example 65, 5-Chloro-2-methylbenzo[b]thiophene-3-sulfonic acid [4-methoxy-3-(4-methylpiperazin-1-yl)phenyl] amide], which Ki is on record?
**A.** The Ki was < 10 nM.

**Q.** `COc1ccc(NS(=O)(=O)c2cccc(I)c2)cc1N1CCNCC1` [Example 70, 3-Iodo-N-(4-methoxy-3-piperazin-1-ylphenyl)benzenesulfonamide] was tested. Which Ki did it give?
**A.** Its Ki is < 10 nM.

**Q.** `COc1ccc(NS(=O)(=O)c2ccc(Cl)c(Cl)c2)cc1N1CCNCC1` [Example 90, 3,4-Dichloro-N-(4-methoxy-3-piperazin-1-ylphenyl)benzenesulfonamide] was tested. Which Ki did it give?
**A.** Its Ki is < 10 nM.

**Q.** Which Ki does the source give for `COc1ccc(NS(=O)(=O)c2ccc3ccccc3c2)cc1N1CCNCC1` [Example 87, Naphthalene-2-sulfonic acid(4-methoxy-3-piperazin-1-ylphenyl)amide] here?
**A.** The Ki was < 10 nM.

**Q.** `COc1ccc(NS(=O)(=O)c2cccc(Br)c2)cc1N1CCN(C)CC1` [Example 11, 3-Bromo-N-[4-methoxy-3-(4-methylpiperazin-1-yl)phenyl]benzenesulfonamide] was tested. Which Ki did it give?
**A.** The Ki was < 10 nM.

**Q.** How did the Ki turn out when `COc1ccc(NS(=O)(=O)c2ccc3c(Cl)cccc3c2)cc1N1CCN(C)CC1` [Example 61, 5-Chloronaphthalene-2-sulfonic acid [4-methoxy-3-(4-methylpiperazin-1-yl)phenyl] amide] was run?
**A.** Its Ki is < 10 nM.

**Q.** For `COc1ccc(NS(=O)(=O)c2cc(Cl)cc(Cl)c2)cc1N1CCN(C)CC1` [Example 15, 3,5-Dichloro-N-[4-methoxy-3-(4-methylpiperazin-1-yl)phenyl]benzenesulfonamide], which Ki is on record?
**A.** Its Ki is < 10 nM.

**Q.** With `COc1ccc(NS(=O)(=O)c2c(C)sc3ccc(Cl)cc23)cc1N1CCNCC1` [Example 84, 5-Chloro-2-methylbenzo[b]thiophene-3-sulfonic acid (4-methoxy-3-piperazin-1-ylphenyl) amide] as the compound, how does the Ki read?
**A.** The Ki was < 10 nM.

**Q.** `COc1ccc(NS(=O)(=O)c2cccc(Br)c2)cc1N1CCNCC1` [Example 77, 3-Bromo-N-(4-methoxy-3-piperazin-1-ylphenyl)benzenesulfonamide] was tested. Which Ki did it give?
**A.** Its Ki is < 10 nM.

From patent US6423717B1, “Sulphonamide derivatives, process for their preparation, and their use as medicaments” (SmithKline Beecham p.l.c., priority 1996, dated 2002)
